For experiment [1], the system named is rats with cardiac ischemia reperfusion (I/R) injury. The experiment is described as follows: Myocardial infarction areas caused by cardiac muscle I/R. The format is in vivo, rat. Conditions: for aar/lv / nec/aar / nec/lv: 5 days, ischemia 30 min, reperfusion 30 min. As to the method: (§1) 52 SD rats having a body weight of 220±20 g were randomly divided into model control group, salviannic acid injection group (in 1 mL/kg), and group of bornyl β-(3,4-dihydroxylphenyl)-α-hydroxylpropionate ester at a small, middle and large dose (ip 5, 15, 35 mg/kg). The rats of the normal group and the model control group were ip administered with equal-volume of physiologic saline. The rats of all groups were administered for consecutive 5 days. When the rats were administered for the last time, they were simultaneously anesthetized with 1.5% pentobarbital sodium (ip 45 mg/kg), then a catheter was inserted into the right carotid artery, and connected via a transducer to an eight-channeled physiological recorder. Tracheal cannula was performed, and the ventilation rate was maintained at 60 times/min. The chest was opened, a 6/0 suture was used to form a loop at a site 1˜2 mm from the root of the anterior descending coronary artery, and a plastic pipe was introduced through the loop, then the loop was tightened up. The change of electrocardiogram was observed. An increase or decrease of ST indicated the success of ligation. The color of the myocardial tissue below the ligation suture became darker. 30 minutes later, the plastic pipe was pulled out to allow coronary artery blood flowing again and cause hyperemia of local tissue during reperfusion. For the groups subjected to ischemia for 30 min and reperfusion for 30 min, the myocardial infarction areas were recorded before the test, after ischemia for 1 min and 30 min, and after reperfusion for 30 min; for the groups subjected to ischemia for 30 min and reperfusion for 2 h, cardiac tissue samples were taken and fixed using 10% formalin, embedded with paraffin, serially sliced into sections with a thickness of 4 μm, and separately subjected to immunohistochemistry tests; the rats of the sham operation group were subjected only to the introduction of suture but their coronary arteries were not ligated.
After the rats were subjected to ischemia and reperfusion for 30 minutes, their anterior descending coronaries were ligated again, then they were sacrificed, their hearts were removed promptly, and 0.5 mL of 1% evans blue was injected into heart chambers via aorta to distinguish the ischemic regions and the non-ischemic regions. After the heart atrium and right ventricle were cut-off, the heart was refrigerated at −20° C. for 30 min, then placed in a tailor-made slice groove, and cut along the long axis to form 2 mm slices. The slices were immersed in 1% TTC phosphoric acid buffer solution (pH7.4), and incubated at 37° C. for 30 min to distinguish risky regions and necrotic regions. Then the slices were fixed with 10% formaldehyde for 24 h to enhance staining color for contrast photography. After the above treatment, the myocardial tissue was divided into: normal myocardia in blue, ischemic myocardia in light red, and necrotic myocardion in gray. A computer image analysis software was used to calculate the percentage of the area of the infarct myocardial region (nec) based on the area of the risky myocardial region (aar, i.e., ischemic myocardia, including ischemic infarct region and ischemic non-infarct region) (nec/aar), and the percentage of the area of the infarct myocardial region based on the whole area of the myocardia (nec/lv) to indicate the degree of infarct, as well as the percentage of the area of the risky myocardia based on the area of the left ventricle (aar/lv).

Another experiment relates to Bcl-2. In words: Immunohistochemistry protein expression in I/R myocardial tissue: Bcl-2. It is filed as in vivo, rat. Conditions: for Bcl-2 protein expression, OD value: 5 days, ischemia 30 min, reperfusion 2 h. On the procedure:
as §1
Standard immunohistochemistry ABC and SP methods were employed for staining. Bax: anti-rabbit polyclonal antibody (Santa CruzBio. Inc.) at a dilution of 1:200; […]: anti-rabbit polyclonal antibody (TBD Tianjin Biotechnological Center). At a dilution of […]; caspase-3: anti-rabbit polyclonal antibody (Normarkers Fromont, Calif.), at a dilution of 1:200; MMP-2: anti-murine monoclonal antibody (NormarkersFromont, Calif.) at a dilution of 1:200; PPARγ: anti-caprine polyclonal antibody (Santa Cruz Bio. Inc.), at a dilution of 1:500. The specific procedures were performed in accordance with the instructions of the ABC and SP kits, DAB was used for color development, and neutral resin was used for mounting. PBS was used instead of the first antibody as a negative control. Cells with positive expression of the test polypeptides were of brown-yellow color, with MMP-2 protein being present in acytoplasm, Bcl-2 expressed in nuclear membrane and cytoplasm, Bax mainly in cytoplasm and partially in nucleus, and caspase-3 mainly in nucleus and partially in cytoplasm. CMIAS image analysis system was used for random selection of fields of slices and automatic selection of sites for analysis, and statistic analysis was performed by using mean optical density values or integral optical density values of the obtained myocardial tissue slices.

Each structure is given as a SMILES string.

As to `CC1(C)C2CCC1(C)C(OC(=O)C(O)Cc1ccc(O)c(O)c1)C2` (stereo not drawn) [bornyl salvianate ester, bornyl β-(3,4-dihydroxylphenyl)-α-hydroxylpropionate ester], the values for the aar/lv in experiment [1] (5 mg/kg ip), in experiment [1] (15 mg/kg ip) and in experiment [1] (35 mg/kg ip) were 64.09 ± 18.10%, 63.02 ± 15.98% and 51.97 ± 13.04 %, respectively. Moreover, the nec/aar in experiment [1] (5 mg/kg ip) was 61.72 ± 14.65%; in experiment [1] (15 mg/kg ip), 62.63 ± 13.82%; in experiment [1] (35 mg/kg ip), 50.01 ± 9.03 %. For the same molecule, the nec/lv amounted to 48.45 ± 17.11% in experiment [1] (5 mg/kg ip), 48.23 ± 15.34% in experiment [1] (15 mg/kg ip) and 40.21 ± 12.65 % in experiment [1] (35 mg/kg ip). The “decrease of aar/lv in comparison with the model control group” value in experiment [1] (large dose group (35 mg/kg ip)) was 22.5%. For the same molecule, the “decrease of nec/aar in comparison with the model control group” value in experiment [1] (large dose group (35 mg/kg ip)) amounted to 22%. The “decrease of nec/lv in comparison with the model control group” value in experiment [1] (large dose group (35 mg/kg ip)) stood at 20.4%. Moreover, the figures for the “Bcl-2 protein expression, OD value” in the experiment on Bcl-2 (5 mg/kg ip), in the experiment with Bcl-2 (15 mg/kg ip) and in the experiment with Bcl-2 (35 mg/kg ip) were 0.15 ± 0.03, 0.15 ± 0.06 and 0.21 ± 0.04, respectively. In the experiment with Bcl-2 (myocardial cells I/R), the “expression of Bcl-2 protein (in words)” value is on record as “increase the expression of Bcl-2 protein”.

The values are drawn from US8017786B2, “Substituted β-phenyl-α-hydroxy-propanoic acid, synthesis method and use thereof” (Northwest University, priority 2006, dated 2011).
